“Also recorded” adds a separate entry of the source. Read-outs that look alike come from different tables or passages of the source.
Tests used:
[1] = system: SPbeta AimR and operators presenting spacers from 12 bp to 35 bp; details: pH 7.5
Description: AimR binding to its operator and the inhibition induced by the arbitrium peptides were analyzed by native polyacrylamide and agarose gel electrophoresis. […] Double strand DNA primer probes were purchased from Macrogen (Table S1 and Figure 3A). Purified PCR product or purchased probes (0.4μM) and AimR (4μM) protein were mixed in EMSA buffer (50 mM HEPES pH 7.5, 5 mM MgCl2, 75 mM NaCl and 0.5 mM EDTA). The samples were incubated for 10 min at room temperature. 8% polyacrylamide gels were electrophoresed in Tris-Borate-EDTA (TBE) buffer at 100V for one hour, followed by loading of the samples. Electrophoresis was then performed in TBE buffer at 4°C for about 150 min at 100V. Agarose gels (0.8%–1.2%) were run in TAE buffer at room temperature for about 100 min at 80V. Gels were stained with RedSafe (Intron Biotechnology).

SPbeta AimR N202A = assay: Thermal shift assay, mutant AimR N202A; type: binding, Bacillus subtilis SPbeta phage; details: residual stabilization versus WT
Description: (§1) The thermal shift assay was conducted in a 7500 Fast Real time PCR System (Applied Biosystems). Samples of 20 μL containing 5 × Sypro Orange (Sigma-Aldrich) and 20 μM of protein in a 20 mM Tris pH 8 and 250 mM NaCl buffer were loaded in 96-well PCR plates. To calculate the apparent Kd peptide concentrations from 0 to 2 μM were added to the mixture. Samples were heated from 20 to 85°C in steps of one degree. Fluorescent intensity was plotted versus temperature and integrated with GraphPad Prism software using a Boltzmann model to calculate melting temperatures.

[2] = system: SPbeta AimR bound to putative SPbeta operators; type: biochemical, Bacillus subtilis SPbeta phage; details: pH 7.5
Source text: (§2) Gels were stained with RedSafe (Intron Biotechnology).

[3] = system: SPbeta AimR bound to its operator; type: biochemical, Bacillus subtilis SPbeta phage
Source text: as §2

[4] = system: AimR N202A bound to the AimR operator; assay: EMSA, AimP-induced DNA dissociation of mutant AimR N202A; type: biochemical, Bacillus subtilis SPbeta phage; details: AimR 4 μM, probe 0.4 μM, HEPES pH 7.5, 10 min at room temperature
Source text: as §2

SPbeta AimR [5] = target: T1, SPbeta AimR (Bacillus phage SPbeta, UniProt O64094); assay: SEC-MALS, effect of AimP on AimR oligomeric state; type: biochemical, Bacillus subtilis SPbeta phage; details: 1 mM peptide in injected sample, 1 μM in running buffer; protein 5 mg/mL; 25 mM Tris pH 8, 250 mM NaCl
T1 construct: expresses the full-length AimR (residues 1-386) with an N-terminal 6xHistag; 6xHis tag followed by TEV protease site (N, cleaved yes); made in house; host or cells: E. coli BL21 (DE3) RIL
T1 sequence (O64094 whole entry, the tested form may be a part): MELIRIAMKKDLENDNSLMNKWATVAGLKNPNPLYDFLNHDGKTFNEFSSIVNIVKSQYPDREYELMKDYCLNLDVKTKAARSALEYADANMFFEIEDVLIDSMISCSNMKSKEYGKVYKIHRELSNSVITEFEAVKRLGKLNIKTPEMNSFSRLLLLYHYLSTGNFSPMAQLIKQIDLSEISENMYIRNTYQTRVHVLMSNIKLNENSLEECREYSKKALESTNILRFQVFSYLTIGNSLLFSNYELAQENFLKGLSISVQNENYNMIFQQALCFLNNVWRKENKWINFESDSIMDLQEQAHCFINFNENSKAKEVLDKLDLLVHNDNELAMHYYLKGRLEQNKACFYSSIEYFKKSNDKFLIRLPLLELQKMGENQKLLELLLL
Description: SEC-MALS experiments were performed using an AKTA pure system (GE Heralthcare) coupled to a Wyatt DAWN HELEOS-II MALS instrument and a Wyatt Optilab rEX differential refractometer (Wyatt). 50 μL of the protein samples were injected at a concentration of 5 mg/mL on a Superdex 200 HR 10/300 (GE Heralthcare) column equilibrated in 25 mM Tris pH 8, 250 mM NaCl. When the effect of the peptide in the oligomeric state was tested, 1 mM peptide was added to the injected sample and the running buffer was supplemented with peptide at a final concentration of 1 μM. The Astra 7.1.2 software from the manufacturer was used for acquisition and analysis of the data.

SPbeta AimR [6] = target: T1, SPbeta AimR; type: binding, Bacillus subtilis SPbeta phage; details: WT SPbeta AimR, 20 μM protein, 20 mM Tris pH 8, 250 mM NaCl
Description: as §1

SPbeta AimR D360A = assay: Thermal shift assay, mutant AimR D360A; type: binding, Bacillus subtilis SPbeta phage; details: residual stabilization versus WT
Description: as §1

| Substance | DNA binding of AimR-AimP complex [1] | stabilization induced by AimP, AimR N202A (SPbeta AimR N202A) [°] | DNA release from putative SPbeta operators [2] | effect of peptide on AimR-DNA binding ([3]; pH 7.5) | effect of AimP on DNA dissociation of AimR^N202A [4] | effect of AimP on AimR dimer (SPbeta AimR [5]) | increment in the Tm (in words) (SPbeta AimR [6]) | melting temperature (Tm) of AimR in presence of peptide (SPbeta AimR [6]; 5 × Sypro Orange, 20 to 85°C in steps of one degree, one of three independent experiments) [°C] | stabilization induced by AimP, AimR D360A (SPbeta AimR D360A) [°] | effect of peptide on AimR-DNA binding ([3]; SPbeta AimR 4 μM, DNA probe 0.4 μM, 50 mM HEPES pH 7.5, 5 mM MgCl2, 75 mM NaCl, 0.5 mM EDTA, 10 min at room temperature) |
| --- | --- | --- | --- | --- | --- | --- | --- | --- | --- | --- |
| GMPRGA [regulatory arbitrium AimP peptide for SPbeta AimR, hexapeptide, 95% purity, ProteoGenix] | unable to bind DNA | 1 | induces DNA release | induced the release of AimR from DNA; also recorded: specifically disrupts the SPbeta AimR binding to its operator | did not induce DNA dissociation | did not induce SPbeta AimR dimer dissociation | strong stabilization of SPbeta AimR | 58.4 | 1 |  |
| SAIRGA [AimP peptide specific for phi3T phage, negative control for SPbeta AimR, reference compound] |  |  |  |  |  |  | No increment in the Tm |  |  | had no effect |

Source: PMC6458997, “Deciphering the Molecular Mechanism Underpinning Phage Arbitrium Communication Systems” (Molecular Cell, 2019)
